Source: patent publication US6495331B1, “Regulation of cytokine production in a hematopoietic cell” (National Jewish Center for Immunology and Respiratory …, priority 1996, dated 2002)

How the values were obtained:
Type in all cases: cell-based, mouse
p38 MAP kinase = p38 MAP kinase immunoprecipitation kinase assay (ATF-2 substrate) in OVA-stimulated sensitized MC/9 cells
Procedure: MC/9 cells sensitized with OVA-IgE were incubated in the presence of PBS (O min) or 10 μg/ml OVA for 1, 5, 15, 30, or 60 min. To immunoprecipitate p38 kinase, 3×10^6 cells were lysed by vigorous mixing in 0.4 ml of extraction buffer (1% Triton X-100, 10 mM Tris-HCl (pH 7.4), 5 mM EDTA, 50 mM NaCl, 50 mM […], 0.1% bovine serum albumin (BSA), 20 μg/ml aprotinin, 1 mM PMSF, and 2 mM Na3VO4). The lysate was incubated with the rabbit anti-serum raised against the COOH-terminal peptide sequence of p38 (1:400 dilution) for 2 h at 4° C. Recombinant protein G sepharose 4 B was added to the lysate and incubated for an additional 1 h at 4° C. The immunoprecipitates were washed once with extraction buffer, twice with PAN buffer (10 mM piperazine-N, N′-bis (2-ethanesulfonic acid) (PIPES, pH 7.0), 100 mM NaCl, 20 μg/ml aprotinin). […] The kinase activity was quantified with a PhosphorImager (Molecular Dynamics, Sunnyvale, Calif.).
MC/9 cells sensitized with OVA-IgE (3×10^6) were preincubated with either 1-1000 nM wortmannin or a control (0.01% DMSO) for 15 min and stimulated for 5 min by addition of 10 μg/ml OVA. […] The data are expressed as the percentage of p38 activity detected in the presence of 10 μg/ml OVA and 0.01% DMSO (*, p<0.05).

JNK = JNK activity (GST-c-Jun kinase assay) in OVA-stimulated OVA-IgE-sensitized MC/9 cells
Procedure: MC/9 cells (5×10^6/ml) were cultured with 500 ng/ml anti-OVA IgE for 2 h. The cells were washed with medium three times and cultured with fresh medium for an additional 2 h. OVA dissolved in PBS or anti-IgE was added for the stimulation, and PBS was used as a control vehicle.
The activity of JNK was measured by monitoring the activity of a Glutathione S-transferase-c-Jun-(1-79) fusion protein. Cells (3×10^6) were lysed in a buffer (20 MM Tris-HCl, pH 7.6, 250 mM NaCl, 3 mM EDTA, 3 mM EGTA, 0.5% NP-40, 2 mM Na3VO4, 1 mM dithiothreitol (DTT), 1 mM phenylmethylsulfonyl fluoride (PMSF), 20 μg/ml aprotinin, 5 μg/ml leupeptin). The lysates were mixed with GST-c-Jun-Sepharose beads and rotated at 4° C. for 3 h. The beads were washed twice in lysis buffer and once in kinase assay buffer (20 mM Hepes, pH 7.5, 20 mM β-glycerophosphate, 10 mM MgCl2, 1 mM DTT, 50 mM Na3VO4, 10 mM p-nitrophenyl phosphate). After the final wash, 40 μl of a kinase assay buffer containing 10 μCi of γ-^32P-ATP (ICN Pharmaceuticals, Irvine, Calif.) were added per sample. […] The bands corresponding to GST-c-Jun were cut out of the gel, and radioactivity was determined by liquid scintillation counting. […]

human TNF-α promoter = test: TNF-α promoter luciferase reporter pTNF(-1311)Luc in MC/9 cells stimulated by FcεRI aggregation
Procedure: The pXP1 plasmid containing full length of the human TNF-α promoter just upstream of the luciferase gene, designated pTNF(-1311)Luc, was provided by Dr. James S. Economou (Division of Surgical Oncology, UCLA School of Medicine, Los Angels, Calif.). pTNF(-1311)Luc was transfected into MC/9 by the DEAE-dextran method. 2×10^6 cells were washed once with 1×TBS (25 mM Tris, 137 mM NaCl, 5 mM KCl, 0.5 mM Na2HPO4, 0.49 MM MgCl2, 0.68 mM CaCl21 pH 7.5). Cells were suspended with 0.4 ml of 500 μg DEAE-dextran/4 μgDNA mixture and incubated at room temperature for 30 min. After washed with 1×TBS, cells were suspended with 10 ml of culture medium and plated on culture dish. […]
Luciferase activity was measured to measure TNF-α promoter activity. […] 30 μl of the lysate was mixed with the same volume of Luciferase Assay Substrate containing beetle luciferin as a substrate (Promega, Madison Wis.), and chemiluminescence was measured for 30 sec as relative light units by a luminometer (Monolight 2010, Analytical Luminescence Laboratory, San Diego, Calif.).
MC/9 cells transiently transfected by pTNF(-1311)Luc were passively sensitized with OVA-IgE, and incubated for an additional 15 h with 10 μg/ml OVA or PBS in the presence of 0.01% DMSO or 100 nM wortmannin. […] Luciferase activity in cell lysates was measured as relative light units (RLU) and standardized by control RLU (mean±S.D., N=4, p<0.01). […]

ERK2 [1] = test: ERK2 phosphorylation by anti-ERK2 immunoblot in MC/9 cells; conditions: PD 098059, MC/9 cells
Procedure: After different treatments, 1×10^6 cells were lysed in buffer (150 mM NaCl, 1% Nonidet P-40, 0.5% deoxycholic acid sodium salt, 0.1% SDS, 50 mM Tris (pH 7.6), 10 μg/ml aprotinin, […] leupeptin, 1 mM phenylmethylsulfonyl fluoride). Samples were electrophoresed on SDS-10% polyacrylamide gels and proteins were transferred to nitrocellulose membranes. Membranes were incubated overnight in blocking buffer containing 1% BSA at 4° C. The monoclonal anti-ERK2 antibody (200 μg/69 μl, Upstate Biotechnology) was added to the blocking buffer (1:1000), and blots were incubated for an additional 1 h at room temperature. The blots were washed in TBST (25 mM Tris (pH 8.0), 125 mM NaCl, 0.025% Tween 20), and specific reactive proteins were detected by an enhanced chemiluminescence method, employing a sheep anti-mouse Ig antibody linked to horseradish peroxidase (Amersham Corp.).
1×10^6 cells were lysed in buffer (150 mM NaCl, 1% NP40, 0.5% deoxycholic acid sodium salt, 0.1% SDS, 50 mM Tris (pH 7.6), 10 μg/ml aprotinin, […] leupeptin, 1 mM PMSF). […] The blots were washed in TBST (25 mM Tris, pH 8.0, […] NaCl, 0.025% Tween 20) and specific reactive proteins were detected by an enhanced chemiluminescence method, employing a sheep anti-mouse Ig antibody linked to horseradish peroxidase (Amersham, Arlington Heights, Ill.).

TNF-α production = TNF-α production by OVA-stimulated sensitized MC/9 cells, ELISA; conditions: then 10 μg/ml OVA 3 h
Procedure: An ELISA for TNF-α production was performed as follows. Purified rat anti-mouse TNF-α monoclonal antibody was diluted to 2 μg/ml in coating solution (0.1 M NaHCO3, pH 8.2) and 50 μg was added to wells of an ELISA plate (Dynatech Laboratories). […] After washing twice, standards (16 pg/ml −4 ng/ml recombinant mouse TNF-α) and samples were added at 100 μl per well and incubated overnight at 4° C. After washing four times, biotinylated rabbit anti-mouse TNF-α polyclonal antibody (1 μg/ml) was added to wells and incubated at room temperature for 45 min and wells were washed six times. […] ABTS (2,2′-Azino-bis(3-ethylbenzthiazoline-6-sulfonic acid) substrate (30 mg/ml 0.1 M citric acid, pH 4.35) containing 0.03% H2O2 was added at 100 μl per well and color reaction was allowed to develop at room temperature for 30 min. A plate was read at OD 410 nm and analyzed by Mycroplate Manager (Bio Rad, Hercules, Calif.).
MC/9 cells (1×10^6/ml) were incubated with 500 ng/ml mouse monoclonal IgE specific for OVA (OVA-IgE) for 2 h. […] After the incubation, the cell supernatant was harvested and TNF-α production was measured by ELISA.
The effect of wortmannin on TNF-α production in MC/9 cells was also examined. […] TNF-α in the medium was measured by ELISA.
MC/9 cells sensitized with OVA-IgE (1×10^6/ml) were incubated with 0.1% DMSO or 30 μM PD 098059 for 1 h. […] TNF-α in the medium was measured by ELISA.

ERK2 [2] = test: ERK2 in vitro kinase assay (32P incorporation into myelin basic protein) in OVA-stimulated sensitized MC/9 cells
Procedure: MC/9 cells sensitized with OVA-IgE (1×10^6/ml) were incubated with 0.1% DMSO (control and 0 nM) or 3-30 μM PD 098059 for 1 h and the reaction was stopped by centrifugation at 5 min after the stimulation. The cells were then incubated with 10 μg/ml OVA or PBS (control) for 5 min. Kinase activity of ERK2 was measured as ^32P incorporation into myelin basic protein (MBP).
In vitro kinase assay of ERK2 was carried out as described above with some minor modifications. 3×10^6 cells were lysed by vigorous mixing in 0.4 ml of lysis buffer (20 mM Tris-HCl (pH 8.0), 1% Triton X-100, 10% glycerol, 137 mM NaCl, 1.5 mM MgCl2, 1 mM EGTA, 50 mM NaF, 1 mM Na3VO4, 1 mM PMSF, 5 μg/ml leupeptin, and 10 μg/ml aprotinin). The lysate was incubated with anti-ERK2 antibody (2 μg/ml) for 2 hrs at 4° C. Recombinant protein G sepharose 4B was added to the lysate and incubated for an additional 1 hr at 4° C. The immune complexes were washed three times with lysis buffer, and once with kinase buffer (30 mM Tris-HCl (pH 8.0), 20 mM MgCl2, 2 mM MnCl2). For the in vitro kinase assay, the immune complex suspension was incubated with 9 μg myelin basic protein (MBP) and 10 μCi of [γ-^32P] ATP in kinase buffer in a final volume of 30 μl for 30 min at 30° C. […] The bands corresponding to MBP were cut out of the gel, and radioactivity was determined by liquid scintillation counting.

Row | SMILES | effect on p38 activation (p38 MAP kinase; PD 098059, data not shown) | effect on JNK activation (JNK; PD 098059, data not shown) | effect on OVA-induced luciferase activity (TNF-α promoter) (human TNF-α promoter; 30 μM PD 098059, 10 μg/ml OVA 15 h) | effect on ERK2 phosphorylation induced by aggregation of FcεRI (ERK2 [1]) | effect on TNF-α production (TNF-α production; 30 μM PD 098059, 1 h) | decrease in OVA-induced ERK2 activity (ERK2 [2]; 30 μM PD 098059, 1 h, then 10 μg/ml OVA 5 min) [%] | effect on ERK2 activities (ERK2 [2]; 10-30 μM PD 098059, MC/9 cells) | decrease in p38 kinase activities (p38 MAP kinase; 100 nM-1 μM wortmannin, 15 min, then 10 μg/ml OVA 5 min) | JNK kinase activity, percentage of that observed in the absence of treatment (JNK; 100 nM wortmannin, 15 min preincubation, 10 μg/ml OVA 10 min, MC/9 cells) [%] | decrease in OVA-induced luciferase activity (TNF-α promoter) (human TNF-α promoter; 100 nM wortmannin, 10 μg/ml OVA 15 h) [%] | decrease in TNF-α production (TNF-α production; 100 nM wortmannin, 15 min) [%]
1 | COc1cccc(-c2cc(=O)c3ccccc3o2)c1N [PD 098059] | did not inhibit | did not inhibit | enhanced OVA-induced luciferase activity | strongly inhibited | did not affect TNF-α production | 65 | significantly inhibited | – | – | – | –
2 | COC[C@H]1OC(=O)c2coc3c2[C@@]1(C)C1=C(C3=O)[C@@H]2CCC(=O)[C@@]2(C)C[C@H]1OC(C)=O [wortmannin] | – | – | – | – | – | – | – | 50-60% | 8 | 40 | 77
